Assay results reported in ChEMBL document CHEMBL1201862, “PubChem BioAssay data set” (2004).
Activity calls are given as the source filed them.

Key:
[1] = target: T1, Short transient receptor potential channel 4 (Mus musculus, UniProt Q9QUQ5); assay: mouse TRPC4 channel inhibitors, dose response, cell-based, HEK293 TRPC4/mu-opioid, Fluo-4 calcium (AID 434942); assay type: functional;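 further: potency of inhibitors blocking the TRPC4 calcium response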
T1 sequence (Q9QUQ5 whole entry): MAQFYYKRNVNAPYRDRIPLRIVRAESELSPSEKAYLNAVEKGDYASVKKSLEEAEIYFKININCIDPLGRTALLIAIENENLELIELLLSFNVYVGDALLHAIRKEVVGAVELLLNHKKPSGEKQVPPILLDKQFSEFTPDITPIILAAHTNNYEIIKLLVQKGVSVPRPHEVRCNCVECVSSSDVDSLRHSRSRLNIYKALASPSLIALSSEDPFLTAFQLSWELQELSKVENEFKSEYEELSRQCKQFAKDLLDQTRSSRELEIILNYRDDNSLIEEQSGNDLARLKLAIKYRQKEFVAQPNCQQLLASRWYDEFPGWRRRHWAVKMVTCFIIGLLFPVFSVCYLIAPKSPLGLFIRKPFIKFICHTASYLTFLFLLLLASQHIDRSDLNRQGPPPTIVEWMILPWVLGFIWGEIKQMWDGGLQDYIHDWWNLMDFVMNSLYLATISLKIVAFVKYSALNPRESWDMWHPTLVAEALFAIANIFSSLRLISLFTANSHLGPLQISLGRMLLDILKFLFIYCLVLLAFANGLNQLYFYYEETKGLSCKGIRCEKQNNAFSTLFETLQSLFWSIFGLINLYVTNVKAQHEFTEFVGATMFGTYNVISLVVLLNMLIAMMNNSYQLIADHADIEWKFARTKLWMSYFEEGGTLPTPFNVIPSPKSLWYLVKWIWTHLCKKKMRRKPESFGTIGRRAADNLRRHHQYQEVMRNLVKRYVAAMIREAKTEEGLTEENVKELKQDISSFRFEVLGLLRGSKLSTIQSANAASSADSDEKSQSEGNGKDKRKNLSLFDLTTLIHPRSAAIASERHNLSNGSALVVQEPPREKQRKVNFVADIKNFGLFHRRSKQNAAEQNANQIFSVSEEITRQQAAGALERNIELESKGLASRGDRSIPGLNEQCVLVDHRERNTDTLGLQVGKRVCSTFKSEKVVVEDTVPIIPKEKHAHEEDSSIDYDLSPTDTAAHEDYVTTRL

[2] = target: Large T antigen (Simian virus 40, UniProt P03070); assay type: functional, Betapolyomavirus macacae;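 further: Confirmatory-stage PubChem screen for compounds that inhibit SV40 T antigen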
[3] = tested on: Streptococcus sp. 'group A'; assay: growth inhibition of control SK(-) GAS strain, dose response, counter-screen for streptokinase expression inhibitor project, luminescence, kanamycin, BacTiterGlo, confirmation (AID 1900); assay type: functional, organism-based
[4] = target: T2, Streptokinase A (Streptococcus pyogenes serotype M1, UniProt P10520); assay: S. pyogenes streptokinase expression inhibitors, potency, dose response, plasminogen activation absorbance, OD405 (AID 1914); assay type: functional, Streptococcus pyogenes M1 GAS;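 further: secreted streptokinase activity via plasminogen activation per viability signal from cell pellet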
T2 sequence (P10520 whole entry): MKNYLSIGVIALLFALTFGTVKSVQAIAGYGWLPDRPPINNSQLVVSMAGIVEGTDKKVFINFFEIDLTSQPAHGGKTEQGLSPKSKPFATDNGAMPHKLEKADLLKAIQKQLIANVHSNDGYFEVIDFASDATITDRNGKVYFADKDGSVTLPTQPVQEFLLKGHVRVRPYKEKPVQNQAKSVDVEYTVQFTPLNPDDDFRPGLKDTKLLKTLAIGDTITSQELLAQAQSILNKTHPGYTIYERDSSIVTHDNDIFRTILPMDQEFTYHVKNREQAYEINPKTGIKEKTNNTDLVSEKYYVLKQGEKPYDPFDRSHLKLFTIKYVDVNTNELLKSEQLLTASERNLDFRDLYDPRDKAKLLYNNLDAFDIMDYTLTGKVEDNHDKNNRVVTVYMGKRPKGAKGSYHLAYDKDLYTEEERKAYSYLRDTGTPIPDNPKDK

[5] = tested on: Streptococcus; assay: Group A Streptococcus viability loss, dose response, counter-screen for streptokinase expression inhibitor project, luminescence, BacTiterGlo (AID 1915); assay type: functional, organism-based;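 further: potency for reduction of bacterial viability or growth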
[6] = tested on: INS1; assay: beta cell apoptosis inhibitors, cytokine rescue, dose response, luminescence, retest (AID 449756); assay type: functional, cell-based; details: Rattus norvegicus;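 further: cell death triggered by IL-1 beta plus TNF-alpha plus IFN-gamma mixture; protective hits raise ATP signal compared with cytokine alone wells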
[7] = target: Induced myeloid leukemia cell differentiation protein Mcl-1 (Homo sapiens, UniProt Q07820); assay type: functional
[8] = tested on: P388/ADR; assay: cells; assay type: functional; details: Mus musculus
[9] = tested on: SN12K1; assay: cells; assay type: functional; details: Homo sapiens
[10] = tested on: P388; assay: cells; assay type: functional; details: Mus musculus
[11] = tested on: HEK293; assay: inhibitors of LMP1-driven NF-kB reporter, dose response, cell-based, HEK293, luciferase, cherry-pick (AID 588343); assay type: functional; details: Homo sapiens
[12] = cells; assay type: functional, cell-based
[13] = cells; assay type: functional, cell-based; remark: listed apart in the source
[14] = target: T3, Heat shock factor protein 1 (Mus musculus, UniProt P38532); assay: HSF1 potentiators in luciferase reporter cells, confirmation, cell-based, NIH3T3, luminescence, dose retest (AID 435004); assay type: functional;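 further: stress induced by proteasome inhibitor MG132 added 30 min after compound; luciferase reporter driven by HSF1 response element in NIH3T3 cells; actives raise luminescence as potentiators of the MG132 stress response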
T3 sequence (P38532 whole entry): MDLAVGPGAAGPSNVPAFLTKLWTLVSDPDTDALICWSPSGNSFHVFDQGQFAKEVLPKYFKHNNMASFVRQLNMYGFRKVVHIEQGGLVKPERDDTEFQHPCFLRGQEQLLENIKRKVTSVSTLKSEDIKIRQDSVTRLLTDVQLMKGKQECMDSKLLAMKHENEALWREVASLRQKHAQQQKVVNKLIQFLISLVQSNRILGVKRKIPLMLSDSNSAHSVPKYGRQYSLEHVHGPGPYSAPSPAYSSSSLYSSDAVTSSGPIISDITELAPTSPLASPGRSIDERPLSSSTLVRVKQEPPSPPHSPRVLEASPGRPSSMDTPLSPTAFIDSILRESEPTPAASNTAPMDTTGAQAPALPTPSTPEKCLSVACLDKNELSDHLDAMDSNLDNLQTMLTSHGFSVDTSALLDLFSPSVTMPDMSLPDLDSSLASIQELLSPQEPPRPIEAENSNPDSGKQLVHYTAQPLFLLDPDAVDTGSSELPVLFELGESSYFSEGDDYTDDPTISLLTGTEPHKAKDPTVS

[15] = growth suppression of PTEN-null colon cells, dose response, cell-based, HCT116 PTEN knockout (AID 1047); assay type: functional;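 further: HCT116 colon tumor cells with PTEN knocked out; cells exposed to compound for 60 hours before readout; potency for loss of cell viability measured by luminescence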
[16] = growth suppression of beta-catenin-knockout colon cells, dose response, cell-based, HCT116, human colon tumor (AID 1045); assay type: functional;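 further: HCT116 colon tumor cells with beta catenin knocked out; cells exposed to compound for 60 hours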
[17] = target: T4, Protein skinhead-1 (Caenorhabditis elegans, UniProt P34707); assay type: functional
T4 sequence (P34707 whole entry): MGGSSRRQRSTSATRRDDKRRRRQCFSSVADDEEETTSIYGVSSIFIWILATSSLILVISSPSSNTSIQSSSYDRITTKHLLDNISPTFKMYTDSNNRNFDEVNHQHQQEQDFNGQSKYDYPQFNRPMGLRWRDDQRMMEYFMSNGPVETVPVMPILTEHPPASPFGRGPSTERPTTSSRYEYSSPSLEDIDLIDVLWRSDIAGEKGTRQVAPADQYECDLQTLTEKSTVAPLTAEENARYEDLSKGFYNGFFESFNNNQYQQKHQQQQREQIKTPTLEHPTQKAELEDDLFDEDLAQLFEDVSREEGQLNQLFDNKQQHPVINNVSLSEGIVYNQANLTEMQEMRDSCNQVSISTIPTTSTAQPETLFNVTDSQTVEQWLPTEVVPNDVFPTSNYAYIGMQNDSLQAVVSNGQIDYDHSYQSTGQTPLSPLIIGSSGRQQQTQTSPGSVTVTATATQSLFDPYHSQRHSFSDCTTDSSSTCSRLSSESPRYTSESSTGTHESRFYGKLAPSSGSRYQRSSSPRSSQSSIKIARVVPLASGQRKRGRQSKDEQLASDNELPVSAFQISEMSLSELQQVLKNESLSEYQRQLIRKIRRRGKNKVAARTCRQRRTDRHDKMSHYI

[18] = inhibitors of firefly luciferase expression or activity, dose response, H4 neuroglioma cells, luminescence (AID 1990); assay type: functional, cell-based
[19] = Luminescence Cell-Based Dose Response HTS to Identify Inhibitors of 5'UTR Stem-Loop Driven Prion Protein mRNA Translation in H4 Neuroglioblastoma Cells. [Related pubchem assays: 1827 (Project Summary), 1813 (Primary HTS)]; assay type: functional
[20] = inhibitors of SNCA 5'UTR-driven reporter translation, confirmation, H4 neuroglioma cells, luminescence (AID 1988); assay type: functional, cell-based
[21] = inhibitors of intracellular T. cruzi replication, confirmation, NIH3T3 host cells, beta-gal luminescence (AID 2044); assay type: functional, cell-based;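 further: intracellular parasites grown in NIH/3T3 mouse fibroblasts as host cells; luminescent beta-galactosidase reporter signal from transgenic T. cruzi replicating inside host cells; inhibitors lower the luminescence signal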
[22] = cytotoxicity toward NIH3T3 fibroblasts, dose response, counter-screen, cell-based, ATP luminescence, mouse fibroblasts (AID 2010); assay type: functional;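 further: cells exposed to compound for about 90 hours before reading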

Induced myeloid leukemia cell differentiation protein Mcl-1, sequence (Q07820 whole entry): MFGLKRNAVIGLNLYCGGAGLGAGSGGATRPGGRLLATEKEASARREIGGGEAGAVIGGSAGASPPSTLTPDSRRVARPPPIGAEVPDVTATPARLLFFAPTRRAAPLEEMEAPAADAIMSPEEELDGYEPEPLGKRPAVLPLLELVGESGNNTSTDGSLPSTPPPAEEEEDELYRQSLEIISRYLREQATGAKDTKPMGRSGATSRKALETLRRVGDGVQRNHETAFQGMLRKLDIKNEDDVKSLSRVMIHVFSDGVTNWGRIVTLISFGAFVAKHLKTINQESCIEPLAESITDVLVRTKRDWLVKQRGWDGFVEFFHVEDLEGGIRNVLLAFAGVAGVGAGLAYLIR
Large T antigen, sequence (P03070 whole entry): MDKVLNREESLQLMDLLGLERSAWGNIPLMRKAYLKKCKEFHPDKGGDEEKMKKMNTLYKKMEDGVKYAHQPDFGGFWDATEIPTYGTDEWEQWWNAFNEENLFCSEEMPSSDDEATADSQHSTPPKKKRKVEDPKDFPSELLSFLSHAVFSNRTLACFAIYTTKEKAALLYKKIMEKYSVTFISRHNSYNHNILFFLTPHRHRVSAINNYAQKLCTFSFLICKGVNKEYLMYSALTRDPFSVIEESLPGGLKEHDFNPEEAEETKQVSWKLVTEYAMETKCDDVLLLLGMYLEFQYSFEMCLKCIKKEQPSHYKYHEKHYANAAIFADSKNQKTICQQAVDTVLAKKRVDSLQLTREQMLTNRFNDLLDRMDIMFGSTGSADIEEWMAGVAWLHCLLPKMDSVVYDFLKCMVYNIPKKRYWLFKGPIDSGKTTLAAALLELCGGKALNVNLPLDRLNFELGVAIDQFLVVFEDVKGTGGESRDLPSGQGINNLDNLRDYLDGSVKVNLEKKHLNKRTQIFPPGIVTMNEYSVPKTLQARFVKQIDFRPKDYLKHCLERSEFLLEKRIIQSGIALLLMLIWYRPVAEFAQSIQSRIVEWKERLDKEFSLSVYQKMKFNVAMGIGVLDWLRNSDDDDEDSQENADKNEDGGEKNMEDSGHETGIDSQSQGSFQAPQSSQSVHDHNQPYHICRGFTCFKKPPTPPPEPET

CC(=O)N(c1ccc(Cl)cc1)c1c[nH]c2ccccc12
EC50 [1]: 18.8 µM (active)

O=C(O)c1cc(N/N=C/c2cccc3ccccc23)ccc1Cl
IC50 [2]: > 100 µM (active)

Cc1ccccc1/C=C/C(=O)c1ccc([N+](=O)[O-])o1
EC50 [3]: 2.37 µM (active) | EC50 [4]: 50.9 µM (inconclusive) | IC50 [2]: 83.2 µM (active) | EC50 [5]: 10.6 µM (active) | AC50 [6]: 3.15 µM (active)

O=C(Nc1ccccc1Cl)c1cnccn1
IC50 [7]: 8.55 µM (not active)

C=C1C(=O)OC2CC(C)C3C4OC4C(O)C3(C)C(O)C12 (stereo not given)
GI50 [8]: 8.85 µM (inactive) | GI50 [9]: 24.8 µM (inactive) | GI50 [10]: 8.02 µM (inactive)

COc1cc(/C=N/NC(=O)C2COc3ccccc3O2)ccc1O (stereo not given)
IC50 [2]: 8.24 µM (active)

Cc1ccc(C(=O)Nc2sc(Cc3ccc4c(c3)OCO4)c(C)c2C(N)=O)cc1
AC50 [11]: 130 µM (active)

Oc1ccc(N2CCN(C(c3ccccn3)c3nnnn3C3CCCC3)CC2)cc1 (stereo not given)
IC50 [2]: 6.25 µM (active)

COC(=O)C1=CC[C@@H]2C(C(=O)O)=CO[C@@H](OC3OC(CO)C(O)C(O)C3O)[C@H]12 (stereo not given in full)
GI50 [8]: > 139 µM (inactive) | GI50 [9]: > 300 µM (inactive) | GI50 [10]: > 300 µM (inactive)

NC(=S)N/N=C/c1ccc(OC(=O)COc2ccccc2Cl)cn1
GI50 [8]: 4.97 µM (inactive) | GI50 [9]: 9.29 µM (inactive) | GI50 [10]: 3.31 µM (inactive)

C=C(NC(=O)C(=C)NC(=O)c1csc(C2=NC3c4csc(n4)C4NC(=O)c5csc(n5)C(C(C)(O)C(C)O)NC(=O)C5CSC(=N5)/C(=C/C)NC(=O)C(C(C)O)NC(=O)c5csc(n5)C3(CC2)NC(=O)C(C)NC(=O)C(=C)NC(=O)C(C)NC(=O)C(C(C)CC)NC2C=Cc3c(C(C)O)cc(nc3C2O)C(=O)OC4C)n1)C(N)=O (stereo not given)
GI50 [8]: 1.27 µM (inactive) | GI50 [9]: 0.968 µM (active) | GI50 [10]: 0.0407 µM (active)

c1cnc(N2CCN(c3ccc4ccccc4n3)CC2)nc1
EC50 [12]: > 350 µM (not active) | EC50 [13]: 11.9 µM (active) | EC50 [14]: > 260 µM (inactive)

O=Cc1cccn1-c1ccc(O)cc1
IC50 [2]: > 100 µM (active)

CCOC(=O)CNC(=O)N(CC)C12CC3CC(CC(C3)C1)C2
GI50 [8]: 131 µM (inactive) | GI50 [9]: 109 µM (inactive) | GI50 [10]: 79.1 µM (inactive)

O=C1c2cccc3cc4ccccc4c(c23)C(=O)N1CCNCCN1C(=O)c2cccc3cc4ccccc4c(c23)C1=O
GI50 [8]: 0.16 µM (active) | GI50 [9]: 1.91 µM (inactive) | GI50 [10]: 0.27 µM (active)

CCC/C=C/C=C\C(=O)O[C@@H]1[C@@H](C)[C@]2(O)[C@@H]3C=C(C)C(=O)[C@H]3CC(COC(C)=O)=C[C@H]2[C@@H]2C(C)(C)[C@]12OC(C)=O
GI50 [8]: 1.79 µM (inactive) | GI50 [9]: 1.98 µM (inactive) | GI50 [10]: 1.12 µM (inactive)

COc1cccc(C(=O)Nc2ccc3nc(N4CCN(c5ncccn5)CC4)cc(C)c3c2)c1OC
EC50 [15]: 5.74 µM (active) | EC50 [16]: 6.95 µM (active) | IC50 [7]: 5.6 µM (active)

Cc1cc2[nH]c3ccccc3c2c(C)n1
EC50 [1]: 1.68 µM (active)

COCCn1c(SCC(=O)NCc2ccco2)nnc1-c1c[nH]c2ccccc12
AC50 [11]: 283 µM (active)

CSc1sc(=S)sc1SC
GI50 [8]: > 100 µM (inactive) | GI50 [9]: > 63.1 µM (inactive) | GI50 [10]: 60.8 µM (inactive)

CCCn1cnc2cc(NCc3cccc(OC)c3O)ccc21
IC50 [2]: 22.1 µM (active) | IC50 [17]: > 100 µM (inactive)

Oc1ccc(/C=N/Nc2nc(-c3cccnc3)nc3ccccc23)c(O)c1
IC50 [7]: 52.8 µM (not active)

O=C(Nc1cnc2ccccn2c1=O)c1ccc(Cl)cc1Cl
EC50 [18]: 10.1 µM (inconclusive) | EC50 [19]: 5 µM (active) | EC50 [20]: 5.78 µM (active) | AC50 [11]: 2.55 µM (active)

O=S(=O)(c1cccc(C(F)(F)F)c1)N1CCC(c2nc(O)c3nnn(Cc4cccc(F)c4)c3n2)CC1
EC50 [12]: > 350 µM (not active) | EC50 [13]: > 350 µM (not active)

COc1cc(/C=N/NC(=O)c2nnn(-c3nonc3N)c2-c2cccs2)ccc1O
IC50 [2]: 19.4 µM (active)

CCC1OC(=O)C(C)C(OC2CC(C)(O)C(O)C(C)O2)C(C)C(O)C(C)(O)CC(C)C(=O)C(C)C(O)C1C (stereo not given)
GI50 [8]: > 300 µM (inactive) | GI50 [9]: > 300 µM (inactive) | GI50 [10]: > 300 µM (inactive)

Cc1cccc(/C=N\NC(=O)c2ccc(Cl)cc2)c1O
EC50 [12]: > 350 µM (not active) | EC50 [21]: 0.877 µM (active) | EC50 [13]: 6.37 µM (active) | EC50 [22]: 9.57 µM (active) | EC50 [14]: 91 µM (active) | AC50 [6]: 0.597 µM (active)

N#Cc1ccccc1S(=O)(=O)N1CCN(c2cnccn2)CC1
EC50 [12]: > 350 µM (not active) | EC50 [13]: > 350 µM (not active)
